Measured values reported in patent US8617540B2, “Combinational chemotherapy treatment” (Fox Chase Cancer Center, priority 2009, dated 2013).
Like-named read-outs stand apart in the source and are kept apart here.

What was measured:
[1] = system: cells treated with 5-FU and HmdU
Description: (§1) Taking account of effect of 3-aminobenzamide on cell cycle shown FIG. 14B, effects of PARP-1 inhibitors on cytotoxicity were examined.

[2] = system: HT-29 colon cancer cells; test: Cell growth assay (WST-1), combination analysed with CombiTool; assay type: cell-based; conditions: for synergistic activity on growth inhibition in combination with HmdU: 5-FU related compound used with HmdU; for synergistic activity on growth inhibition when combined with 5-FU: HmdU related drug combined with 5-FU
Description: In a typical cell growth assay, cells were plated in 96-well plates on Day 0, and indicated concentrations of drugs were added on Day 1. Each condition was replicated in triplicate. Subsequently, quantities of metabolically active cells in each well were measured by WST-1 assay on Day 4. The WST-1 assay (assay reagents from Roche) measures the concentration of formazan converted from a tetrazolium salt, WST-1, by a mitochondrial succinate-tetrazolium-reductase system.
CombiTool is a computer program for the analysis of combination effects of biologically active agents and is described in Dressler et al. (Computers and Biomedical Research (1999) 32:145-160). It performs model calculations and an analysis of experimental combination effects for two or three agents according to both the Bliss independence and the Loewe additivity criteria. Zero interaction response surfaces are calculated from single-agent dose-response relations and compared to experimental combination data. The calculation of response surfaces for Loewe additivity is based on a new approach which combines the implicit definition equation in terms of doses alone with single-agent dose-response relations. CombiTool has a built-in graphics facility which allows for the direct visualization of the response surfaces or the corresponding contour plots and the experimental data.
In the present example, the in vitro effects of 5-FU and HmdU treatment were assessed in several cell lines. […] FIG. 1B show the results interpreted with the CombiTool program which indicates synergistic experimental data by large gray circles above the lower additive results when the drugs are used alone. […] FIGS. 1C and 1D show similar results from experiments in the colon cancel cell line, HCT116.
Further testing was performed on the HT-29 cell line to assess whether compounds that are structurally and/or functionally related to 5-FU and HmdU also display synergistic activity on growth inhibition. In a series of experiments 5-FU was tested with: (1) 5-Hydroxymethyluracil (HmU), a base form which is subsequently converted to a nucleoside form, HmdUrd; (2) Deoxyuridine (dUrd), a nucleoside which is different from HmdU by the lack of modification at the 5-carbon position; and (3) 5-Hydroxydeoxyuridine (OHdU), a nucleoside which is different from HmdU by the lack of a methyl group in the 5-carbon modification. […] See FIG. 7A-7D (HmU—obtained from Cayman Chemical and Aldrich Chemical Company, respectively+5FU), FIG. 8A-8B (dUrd+5FU), and FIG. 9A-9B (OHdU+5FU).
Another set of experiments tested several alternative 5-FU agents in combination with HmdU to determine if synergy exists when the agents were administered in combination. The 5-FU related compounds used with HmdU were: (1) 5-Fluorodeoxyuridine (5-FdU), a deoxyribonucleoside (2) Deoxyadenosine (dA), an agent capable of decreasing dTTP; and (3) Raltitrexed, a structural analog of 5,10-methylene tetrahydrofolate (CH2THF), and a specific inhibitor of thymidylate synthase (TS). […] See FIGS. 11 (dA) and 12 (Raltitrexed).

[3] = system: HT-29; test: Caspase inhibitor rescue from cell killing by 5-FU and HmdU; assay type: cell-based; conditions: caspase inhibitor added
Description: Further, experiments were performed to uncover whether the combined treatment with 5-FU and HmdU induces PARP1 cleavage, which would indicate that apoptosis is the pathway responsible for the cytotoxic effects. […] Both of the results in FIGS. 17 and 18 indicate that the cell killing by the combined drug treatment is not via apoptosis. However, the combination has a synergistic effect on the cytotoxicities of 5-FU and HmdU, and derivatives thereof.

[4] = system: HT-29 cells; test: Cell cycle analysis of synchronized cells; assay type: cell-based; conditions: 48 h of treatment with 5-FU and HmdU
Description: Panel A is a cell cycle analysis of synchronized HT-29 cells with 5-FU, HmdU, and combined 5-FU/HmdU treatment over a period of two days.
First, clonogenic assays were performed to determine the time course of the combination of 5-FU and HmdU. […] Subsequently, cell cycle distribution was assessed.

[5] = system: cells treated with 5-FU and HmdU; test: Effect of PARP-1 inhibitors on cytotoxicity of 5-FU and HmdU; conditions: PARP-1 inhibitor added
Description: as §1

Structure (SMILES): Nc1ccc2c3c(cccc13)C(=O)NC2=O [4-amino-1,8-naphtalimide]
- effect on growth inhibition by 5-FU and HmdU [1]: rescued cells from growth inhibition

Structure (SMILES): Cc1nc2ccc(CN(C)c3ccc(C(=O)N[C@@H](CCC(=O)O)C(=O)O)s3)cc2c(=O)[nH]1 [Raltitrexed]
- synergistic activity on growth inhibition in combination with HmdU [2]: did not show any significant synergistic effects

Structure (SMILES): O=c1[nH]c(=O)n([C@H]2C[C@H](O)[C@@H](CO)O2)cc1O [OHdU, 5-Hydroxydeoxyuridine]
- synergistic activity on growth inhibition when combined with 5-FU [2]: did not show any significant synergistic effects

Structure (SMILES): O=c1[nH]c(=O)n([C@H]2C[C@H](O)[C@@H](CO)O2)cc1F [5-FdU, 5-Fluorodeoxyuridine]
- synergistic activity on growth inhibition in combination with HmdU [2]: strong synergy

Structure (SMILES): Nc1ncnc2c1ncn2[C@H]1C[C@H](O)[C@@H](CO)O1 [dA, Deoxyadenosine]
- synergistic activity on growth inhibition in combination with HmdU [2]: did not show any significant synergistic effects

Structure (SMILES): CC(C)[C@H](NC(=O)c1ccc2ccccc2n1)C(=O)N[C@@H](CC(=O)O)C(=O)COc1c(F)cccc1F [QVD]
- rescue from cell killing by the 5-FU and HmdU treatment [3]: did not rescue

Structure (SMILES): O=c1[nH]cc(CO)c(=O)[nH]1 [HmU, 5-Hydroxymethyluracil]
- synergistic activity on growth inhibition when combined with 5-FU [2]: did not show any significant synergistic effects

Structure (SMILES): O=c1ccn([C@H]2C[C@H](O)[C@@H](CO)O2)c(=O)[nH]1 [dUrd, Deoxyuridine]
- synergistic activity on growth inhibition when combined with 5-FU [2]: did not show any significant synergistic effects

Structure (SMILES): Cn1c(=O)c2c(ncn2C)n(C)c1=O [caffeine]
- effect of added agent on the cell cycle [4]: overcomes G2/M arrest

Structure (SMILES): NC(=O)c1cccc(N)c1 [3-aminobenzamide]
- effect on growth inhibition by 5-FU and HmdU [5]: rescued cells from growth inhibition
- effect of added agent on the cell cycle [4]: allows cells to complete DNA replication
